Measurements: US6967261B1, “Bandage, methods of producing and using same” (Kimberly-Clark Worldwide, priority 2001, dated 2005)

Legend:
[1] = tested on: full thickness (excisional) wounds; experiment: Accelerated wound healing study, full thickness acute wound model; assay type: in vivo, albino rats; settings: rats, topical on wound, over 15 days; versus gauze and Comfeel
Method: In the examples of the study, a series of comparative control bandage substrates were evaluated as to the speed at which wounds covered/dressed with such bandages healed. In particular, the rates of re-epithelialization were measured for wounds dressed by such control dressing materials.
Wounds were treated with test and control articles on the day of wounding (day 0) on 2,4,6,8,10, 12, and 14 days after the injury. CNA (freeze dried) was cut to the approximate size of the wound and applied over the wound. Chitosan (powder) and NA (powder) were applied over the wound to the depth that covered the underlying tissue. The gauze was cut to extend approximately 0.5 cm beyond the margins of the wound. […]
For the study, twenty four albino rats (12M/12F), each weighing between 250-300 g, were anesthetized (90 mg/Kg Ketamine HCL and 10 mg/Kg Xylazine) and the entire dorsal region of each rat was shaved. […] The epithelial thickness of the three sections of the wound (margin, center and midpoint between these two) was measured by morphometric analysis of the microscopic image using Image-Pro Plus software, Version 3.0 (Media Cybernetics). The average thickness of these sites within the wound was determined for wound healing of the entire site.

human blood = experiment: Lee and White coagulation assay in human blood; settings: dried form, 5 mg/ml, triplicate
Method: Several hemostatic agents were compared to determine relative effectiveness when reviewed with untreated human blood. Such comparison is illustrated in the following Table 23.
Each of the compounds were evaluated in the comparison against the standard control (human blood) and the negative control heparin, which is an anti-coagulant.
Lee and White Coagulation Assay in Human Blood

Compound	wound healing capability (rate of epithelialization, epithelial thickness) [1]	BLOOD CLOTTING TIME (human blood)
NC(=O)c1cccnc1.O=C1O[C@H]([C@@H](O)CO)C(O)=C1O [NA, Niacinamide ascorbate]	dramatically increased the wound healing capability	–
Heparin	–	NC (NC = No Clot for 60 min)
